Measured values published in the supplement of paper PMC10307832.

Each cell line was assayed with c1ccc2c(CCNc3ccc(Nc4ccncc4)cc3)c[nH]c2c1 [Serdemetan] + C[C@@H](Oc1cc(-c2cnn(C3CCNCC3)c2)cnc1N)c1c(Cl)ccc(F)c1Cl [Crizotinib] (partner 1 µM) (assay: relative viability (nuclei count vs DMSO), 5 days (fraction); higher = more cells survive). Conditions: first compound 0.04 µM.
Method in brief: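 For relative viability, nuclei counts in treated wells were divided by those in vehicle wells. Lung cancer cell lines had been pin-tool dosed in 1536-well plates the day after seeding and cultured for 5 days, then fixed and stained in one step (final 0.05% Triton X-100, 1% formaldehyde, 1 ug/ml Hoechst) and imaged at 4×. Doses were one drug alone or a fixed anchor-drug dose plus five library-drug doses (not always all listed) in √10 steps, and values are duplicate-plate medians.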

Cell Line | relative viability
HCC-366 | 0.528
NCI-H1666 | 1.01
NCI-H596 | 1
LK-2 | 0.217
NCI-H2087 | 1.14
SK-MES-1 | 0.983
H3255 | 0.723
COR-L23 | 0.679
COR-L 105 | 0.729
IA-LM | 0.898
LOU-NH91 | 0.733
NCI-H2170 | 1.13
NCI-H2405 | 0.81
HOP-62 | 0.719
A549 | 0.807
NCI-H1299 | 0.898
CAL-12T | 0.63
NCI-H2228 | 0.466
NCI-H1563 | 0.835
NCI-H1944 | 0.973
ABC-1 | 0.926
NCI-H358 | 0.599

Same assay, conditions: first compound 0.1265 µM

Cell Line | relative viability
NCI-H727 | 0.638
NCI-H1650 | 1.09
EBC-1 | 0.214
NCI-H1703 | 0.872
NCI-H1993 | 0.944
SW 1573 | 0.702
NCI-H838 | 0.886
LCLC-103H | 1.12
NCI-H520 | 0.778
NCI-H2126 | 1.07
EMC-BAC-2 | 0.778
NCI-H2085 | 0.817
Calu-6 | 0.718
HCC-366 | 0.412
NCI-H1666 | 0.981
NCI-H596 | 0.862
LK-2 | 0.265
NCI-H2087 | 0.746

Cell Line | relative viability
SK-MES-1 | 0.976
H3255 | 0.836
COR-L23 | 0.578
COR-L 105 | 0.716
IA-LM | 0.767
LOU-NH91 | 0.738
ChaGo-K-1 | 1.11
NCI-H2170 | 1.16
NCI-H2405 | 0.781
HOP-62 | 0.995
A549 | 0.757
NCI-H1299 | 0.947
CAL-12T | 0.705
NCI-H2228 | 0.284
NCI-H1563 | 0.786
NCI-H1944 | 1.02
ABC-1 | 1
NCI-H358 | 0.566

Same assay, conditions: first compound 0.4 µM

Cell Line | relative viability
NCI-H727 | 0.665
NCI-H1650 | 0.927
EBC-1 | 0.188
NCI-H1703 | 0.815
NCI-H1993 | 0.86
SW 1573 | 0.761
NCI-H838 | 0.827
LCLC-103H | 0.979
NCI-H520 | 0.686
NCI-H2126 | 0.944
EMC-BAC-2 | 0.694
NCI-H2085 | 0.733
Calu-6 | 0.712
HCC-366 | 0.117
NCI-H1666 | 0.907
NCI-H596 | 0.914
LK-2 | 0.205
NCI-H2087 | 0.699

Cell Line | relative viability
SK-MES-1 | 0.898
H3255 | 0.811
COR-L23 | 0.771
COR-L 105 | 0.709
IA-LM | 0.813
ChaGo-K-1 | 1.11
NCI-H2170 | 1.16
NCI-H2405 | 0.818
HOP-62 | 0.684
A549 | 0.764
NCI-H1299 | 0.905
CAL-12T | 0.608
NCI-H2228 | 0.591
NCI-H1563 | 0.77
NCI-H1944 | 0.904
ABC-1 | 0.817
NCI-H358 | 0.618

Same assay, conditions: first compound 1.265 µM

Cell Line | relative viability
NCI-H727 | 0.427
NCI-H1650 | 0.944
EBC-1 | 0.19
NCI-H1703 | 0.73
SW 1573 | 0.385
NCI-H838 | 0.794
LCLC-103H | 0.94
NCI-H520 | 0.687
NCI-H2126 | 0.734
EMC-BAC-2 | 0.5
NCI-H2085 | 0.627
Calu-6 | 0.566
HCC-366 | 0.0254
NCI-H1666 | 0.663
NCI-H596 | 0.569
LK-2 | 0.204
NCI-H2087 | 0.426

Cell Line | relative viability
SK-MES-1 | 0.647
H3255 | 0.746
COR-L23 | 0.589
COR-L 105 | 0.874
IA-LM | 0.465
LOU-NH91 | 0.719
ChaGo-K-1 | 0.714
NCI-H2170 | 1.22
NCI-H2405 | 0.763
HOP-62 | 0.857
A549 | 0.578
NCI-H1299 | 0.866
NCI-H2228 | 0.237
NCI-H1563 | 0.68
ABC-1 | 0.69
NCI-H358 | 0.593

Same assay, conditions: first compound 4 µM

Cell Line | relative viability
NCI-H727 | 0.439
NCI-H1650 | 0.879
EBC-1 | 0.181
NCI-H1703 | 0.217
NCI-H1993 | 0.734
SW 1573 | 0.207
NCI-H838 | 1.01
LCLC-103H | 0.995
NCI-H520 | 0.641
NCI-H2126 | 1
EMC-BAC-2 | 0.39
NCI-H2085 | 0.561
Calu-6 | 0.527
HCC-366 | 0.0545
NCI-H1666 | 0.836
NCI-H596 | 0.51
LK-2 | 0.252
NCI-H2087 | 0.487

Cell Line | relative viability
SK-MES-1 | 0.56
H3255 | 0.853
COR-L23 | 0.564
COR-L 105 | 0.838
IA-LM | 0.357
LOU-NH91 | 0.699
ChaGo-K-1 | 0.43
NCI-H2170 | 1.22
NCI-H2405 | 0.608
HOP-62 | 0.494
A549 | 0.306
NCI-H1299 | 0.716
CAL-12T | 0.74
NCI-H2228 | 0.287
NCI-H1563 | 0.704
NCI-H1944 | 0.419
ABC-1 | 0.475
NCI-H358 | 0.292
